Assay results taken from patent US20260176289A1, “SMALL MOLECULE INHIBITORS OF KRAS PROTEINS” (Merck Sharp & Dohme LLC, priority 2022, published 2026).

Tests used:
[1] = system: MKN-1 cells; test: Cellular phospho-ERK assay, MKN-1 cells (amplified wild-type KRAS); assay type: cell-based; conditions: Homo sapiens, amplified wild-type KRAS, 2 hours, read-out: MKN1 pERK IC50
Procedure, shortened: (§1)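 p-ERK/total ERK ratio, measured by AlphaLISA SureFire Ultra multiplex in lysates, was fitted to a 4-parameter logistic model for IC50. Compound exposure was 2 h at 37° C, 5% CO2, 10-point 1:3 dilutions from 30 μM final, on cells plated the previous night.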

[2] = system: AsPC-1 cells; test: Cellular phospho-ERK assay, AsPC-1 cells (homozygous KRAS-G12D); assay type: cell-based; conditions: Homo sapiens, ASPC1, 2 h, KRAS-G12D, 2 hours, read-out: AsPC1 pERK IC50
Procedure, shortened: as §1

[3] = target: KRAS-G12C (C51S/C80L/C118S) (Homo sapiens, UniProt P01116, C118S/C51S/C80L/G12C); test: SOS-catalyzed nucleotide exchange assay (Procedure A, TR-FRET), KRAS-G12C; assay type: biochemical; conditions: nucleotide exchange, Procedure A; read-out: KRAS G12C GNE IC50
KRAS-G12C (C51S/C80L/C118S), sequence (P01116 with tags, fused parts or gaps isoform P01116-2 G12C/C51S/C80L/C118S): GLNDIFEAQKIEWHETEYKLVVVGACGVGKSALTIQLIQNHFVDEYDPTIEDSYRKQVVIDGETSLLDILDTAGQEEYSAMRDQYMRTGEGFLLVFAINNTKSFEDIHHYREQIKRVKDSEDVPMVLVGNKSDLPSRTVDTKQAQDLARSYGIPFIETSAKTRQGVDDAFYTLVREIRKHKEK
Procedure, shortened: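 TR-FRET 520/495 nm ratio read after SOS-driven exchange of Bodipy-GDP for unlabeled GTP (3 mM) on biotinylated RAS bound to Tb-streptavidin. There was a 60 min compound preincubation, RT. Final RAS/SOS and reaction times: G12C 3 nM/40 nM; WT 1 nM/40 nM; NRAS 1.25 nM/40 nM, each 60 min. G12V was 1.25 nM/160 nM, 90 min.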

C#Cc1c(F)ccc2cc(O)cc(-c3nccc4c5c(N6CCOC[C@@](C)(O)C6)nc(OC[C@@]67CCCN6C[C@H](F)C7)nc5n(C)c34)c12 [Ex-18, (S)-4-(8-(8-ethynyl-7-fluoro-3-hydroxynaphthalen-1-yl)-2-(((2R,7aS)-2-fluorotetrahydro-1H-pyrrolizin-7a(5H)-yl)methoxy)-9-methyl-9H-pyrido[4′,3′:4,5]pyrrolo[2,3-d]pyrimidin-4-yl)-6-methyl-1,4-oxazepan-6-ol]
IC50 [1]: 7.67 nM | IC50 [2]: 29.8 nM | IC50 [3]: 10.5 nM
